Source: ChEMBL document CHEMBL3621076, “Synthesis and Characterization in Vitro and in Vivo of (l)-(Trimethylsilyl)alanine Containing Neurotensin Analogues” (J Med Chem, 2015)
Calls of active or inactive are those of the source. No cut-off for these calls is given here. Square brackets hold non-standard residues; d marks the D form. Peptide text beside a SMILES is read from it. Pro(4-sila,4,4-Me2) = C[Si]1(C)CN[C@H](C(=O)O)C1; Ala(SiMe3) = C[Si](C)(C)C[C@H](N)C(=O)O; NMeR = CN[C@@H](CCCNC(=N)N)C(=O)O; hLys = NCCCCC[C@H](N)C(=O)O

Tests used:
Rattus norvegicus [1] = organism: Rattus norvegicus; experiment: Analgesic activity in rat by tail flick test; type: functional
Rattus norvegicus [2] = experiment: Analgesic activity in Sprague-Dawley rat assessed as maximal possible effect for reduction in sensitivity to heat stimulation at 30 ug/kg, it measured every 10 mins for up to 1 hr post dose by tail immersion test; type: functional; set-up: scale not given: the % may be the effect or the level left
Rattus norvegicus [3] = experiment: Reduction in arterial blood pressure in Sprague-Dawley rat assessed as hypotensive effect during pressor phase returning to baseline saline values within <1 mins at 0.1 mg/kg, iv measured over 4 mins; type: functional, organism-based
[4] = molecular target: Neurotensin receptor type 2 (Homo sapiens, UniProt O95665); experiment: Displacement of [125I]-Tyr3-NT from human NTS2 receptor expressed in 1321N1 cell membranes incubated for 30 mins by gamma-counting based competitive radioligand binding assay
Neurotensin receptor type 2, sequence (O95665 whole entry): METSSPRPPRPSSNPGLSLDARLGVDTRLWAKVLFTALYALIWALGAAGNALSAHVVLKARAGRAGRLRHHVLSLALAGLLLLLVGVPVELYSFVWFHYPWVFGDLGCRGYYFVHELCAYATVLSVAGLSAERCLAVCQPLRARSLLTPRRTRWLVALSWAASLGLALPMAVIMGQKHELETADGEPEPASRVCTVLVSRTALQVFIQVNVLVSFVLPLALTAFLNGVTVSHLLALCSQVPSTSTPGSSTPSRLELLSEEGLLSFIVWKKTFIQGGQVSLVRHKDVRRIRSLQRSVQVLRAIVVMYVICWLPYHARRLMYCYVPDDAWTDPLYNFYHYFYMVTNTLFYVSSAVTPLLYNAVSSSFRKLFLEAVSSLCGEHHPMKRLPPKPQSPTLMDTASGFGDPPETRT

[5] = molecular target: T1, Neurotensin receptor type 1 (Homo sapiens, UniProt P30989); experiment: Agonist activity at human NTS1 receptor expressed in CHOK1 cells co-expressing hNTS1-GFP10/RlucII-beta-arrestin 2 assessed as beta-arrestin2 recruitment incubated for 15 mins by BRET assay; type: cell-based, CHO-K1
T1 sequence (P30989 whole entry): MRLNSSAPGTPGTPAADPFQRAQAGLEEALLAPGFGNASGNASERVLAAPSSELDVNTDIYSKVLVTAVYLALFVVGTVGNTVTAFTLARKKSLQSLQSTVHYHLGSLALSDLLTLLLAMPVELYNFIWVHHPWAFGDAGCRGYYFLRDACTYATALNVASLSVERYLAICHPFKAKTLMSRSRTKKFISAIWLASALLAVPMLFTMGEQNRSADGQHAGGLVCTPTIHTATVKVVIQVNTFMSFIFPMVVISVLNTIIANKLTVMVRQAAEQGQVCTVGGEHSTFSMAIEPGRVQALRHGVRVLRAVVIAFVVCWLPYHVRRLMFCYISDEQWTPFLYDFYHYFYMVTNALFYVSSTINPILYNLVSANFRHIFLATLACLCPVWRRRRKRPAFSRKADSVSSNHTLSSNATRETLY

Rattus norvegicus [6] = experiment: Reduction in arterial blood pressure in Sprague-Dawley rat assessed as sustained and pronounced hypotensive phase at 0.1 mg/kg, iv measured over 4 mins; type: functional, organism-based
[7] = molecular target: T1, Neurotensin receptor type 1; experiment: Displacement of [125I]-Tyr3-NT from human NTS1 receptor expressed in CHOK1 cell membranes incubated for 30 mins by gamma-counting based competitive radioligand binding assay; set-up: species or system CHO-K1
Rattus norvegicus [8] = experiment: Analgesic activity in Sprague-Dawley rat model of formalin-induced persistent tonic pain model assessed as reduction in weighted pain score during inflammatory phase at 30 ug/kg, it by formalin test; type: functional, organism-based
[9] = molecular target: Neurotensin receptor type 1 (Rattus norvegicus, UniProt P20789); experiment: Agonist activity at […] NTS1 in Sprague-Dawley rat ileum assessed as inhibition of carbachol-induced contraction; type: tissue-based
Neurotensin receptor type 1 (Rattus norvegicus, UniProt P20789), sequence (P20789 whole entry): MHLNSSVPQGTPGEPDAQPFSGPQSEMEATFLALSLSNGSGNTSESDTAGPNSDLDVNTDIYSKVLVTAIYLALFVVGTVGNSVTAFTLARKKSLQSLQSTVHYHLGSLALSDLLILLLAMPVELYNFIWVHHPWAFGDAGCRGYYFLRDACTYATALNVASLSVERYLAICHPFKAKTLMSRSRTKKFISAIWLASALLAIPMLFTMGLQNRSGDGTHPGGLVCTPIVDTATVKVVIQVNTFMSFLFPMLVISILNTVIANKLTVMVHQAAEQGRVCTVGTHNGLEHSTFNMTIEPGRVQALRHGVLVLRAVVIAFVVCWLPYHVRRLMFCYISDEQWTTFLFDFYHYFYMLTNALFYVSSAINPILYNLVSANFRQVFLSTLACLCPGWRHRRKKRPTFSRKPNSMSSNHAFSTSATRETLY

[10] = Half life in rat plasma at 0.156 mM by UPLC/MS method; type: ADME, cell-free
Rattus norvegicus [11] = experiment: Analgesic activity in Sprague-Dawley rat assessed as increase in response latency to thermal noxious stimulus at 30 ug/kg, it measured every 10 mins for up to 1 hr post dose by tail immersion test; type: functional, organism-based
Rattus norvegicus [12] = experiment: Reduction in arterial blood pressure in Sprague-Dawley rat at 0.1 mg/kg, iv measured over 4 mins; type: functional
[13] = molecular target: T1, Neurotensin receptor type 1; experiment: Agonist activity at human NTS1 receptor expressed in CHOK1 cells co-expressing Galphaq-RlucII(121)/Gbeta1/GFP10-Ggamma1 assessed as Galpha-q stimulation incubated for 15 mins by BRET assay; type: cell-based, CHO-K1
Rattus norvegicus [14] = experiment: Analgesic activity in Sprague-Dawley rat model of formalin-induced persistent tonic pain model assessed as reduction in weighted pain score during acute phase at 30 ug/kg, it by formalin test; type: functional, organism-based

Structure (SMILES)	ED50 (Rattus norvegicus [1]) [nmol]	IC50 [4] [nM]	EC50 [5] [nM]	IC50 [7] [nM]	EC50 [9] [nM]	half-life at 156 µM [10] [min]	EC50 [13] [nM]	other results
CN1CC[C@]23c4c5ccc(O)c4O[C@H]2[C@@H](O)C=C[C@H]3[C@H]1C5 [MORPHINE]	7.4	–	–	–	–	–	–	–
CO[C@@]12CC[C@@]3(C[C@@H]1[C@](C)(O)C(C)(C)C)[C@H]1Cc4ccc(O)c5c4[C@@]3(CCN1CC1CC1)[C@H]2O5 [BUPRENORPHINE]	4	–	–	–	–	–	–	–
CC[C@H](C)[C@H](NC(=O)[C@H](Cc1ccc(O)cc1)NC(=O)[C@@H]1CCCN1C(=O)[C@H](CCCCN)NC(=O)[C@@H](N)CCCCN)C(=O)N[C@@H](C[Si](C)(C)C)C(=O)O (H-KKPYI[Ala(SiMe3)]-OH)	–	0.26	1.49	0.02	1.41	1.33	1.51	Activity (Rattus norvegicus [2]): 40%; Activity (Rattus norvegicus [3]): Active; Activity (Rattus norvegicus [6]): Active; Activity (Rattus norvegicus [8]): Active; Activity (Rattus norvegicus [11]): Active; Activity (Rattus norvegicus [12]): Active; Activity (Rattus norvegicus [14]): Active
CC(C)C[C@H](NC(=O)[C@H](C[Si](C)(C)C)NC(=O)[C@H](Cc1ccc(O)cc1)NC(=O)[C@@H]1CCCN1C(=O)[C@H](CCCCN)NC(=O)[C@@H](N)CCCCN)C(=O)O (H-KKPY[Ala(SiMe3)]L-OH)	–	405	26.6	93.8	> 10000	2.4	169	–
CN1CC[C@]23c4c5ccc(O)c4O[C@H]2C(=O)CC[C@H]3[C@H]1C5 [HYDROMORPHONE]	78	–	–	–	–	–	–	–
CN[C@@H](CCCNC(=N)N)C(=O)N[C@@H](CCCCN)C(=O)N1CCC[C@H]1C(=O)N[C@@H](Cc1ccc(O)cc1)C(=O)N[C@@H](C[Si](C)(C)C)C(=O)N[C@@H](CC(C)C)C(=O)O (H-[NMeR]KPY[Ala(SiMe3)]L-OH)	–	29.7	4.19	246	> 10000	> 120	204	–
C[Si](C)(C)C[C@H](NC(=O)[C@H](C[Si](C)(C)C)NC(=O)[C@H](Cc1ccc(O)cc1)NC(=O)[C@@H]1CCCN1C(=O)[C@H](CCCCN)NC(=O)[C@@H](N)CCCCN)C(=O)O (H-KKPY[Ala(SiMe3)][Ala(SiMe3)]-OH)	–	28.9	0.34	15.4	22.5	2.83	11	–
CC[C@H](C)[C@H](NC(=O)[C@H](Cc1ccc(O)cc1)NC(=O)[C@@H]1CCCN1C(=O)[C@H](CCCNC(=N)N)NC(=O)[C@@H](N)CCCNC(=N)N)C(=O)N[C@@H](CC(C)C)C(=O)O	–	–	–	–	–	1.95	–	Activity (Rattus norvegicus [12]): 30 mmHg
CC(C)C[C@H](NC(=O)[C@H](C[Si](C)(C)C)NC(=O)[C@H](Cc1ccc(O)cc1)NC(=O)[C@@H]1C[Si](C)(C)CN1C(=O)[C@H](CCCCN)NC(=O)[C@@H](N)CCCCCN)C(=O)O (H-[hLys]K[Pro(4-sila,4,4-Me2)]Y[Ala(SiMe3)]L-OH)	–	1420	> 1000	968	> 10000	3.52	> 10000	–
